In ChEMBL document CHEMBL4145686, “Discovery of a Potent and Selective Steroidal Glucocorticoid Receptor Antagonist (ORIC-101)” (J Med Chem, 2018):

Legend:
[1] = Oral bioavailability in mini pig at 10 mg/kg; format: ADME, organism-based, Sus scrofa; details: in vivo
Androgen receptor [2] = molecular target: T1, Androgen receptor (Homo sapiens, UniProt P10275); assay: Agonist activity at AR in human MDA-MB-453 cells assessed as increase in […] gene expression at 111 to 333 nM incubated for 24 hrs by RT-qPCR method; format: cell-based; details: mda-mb-453, 24 h, 0.333 µM
T1 sequence (P10275 whole entry): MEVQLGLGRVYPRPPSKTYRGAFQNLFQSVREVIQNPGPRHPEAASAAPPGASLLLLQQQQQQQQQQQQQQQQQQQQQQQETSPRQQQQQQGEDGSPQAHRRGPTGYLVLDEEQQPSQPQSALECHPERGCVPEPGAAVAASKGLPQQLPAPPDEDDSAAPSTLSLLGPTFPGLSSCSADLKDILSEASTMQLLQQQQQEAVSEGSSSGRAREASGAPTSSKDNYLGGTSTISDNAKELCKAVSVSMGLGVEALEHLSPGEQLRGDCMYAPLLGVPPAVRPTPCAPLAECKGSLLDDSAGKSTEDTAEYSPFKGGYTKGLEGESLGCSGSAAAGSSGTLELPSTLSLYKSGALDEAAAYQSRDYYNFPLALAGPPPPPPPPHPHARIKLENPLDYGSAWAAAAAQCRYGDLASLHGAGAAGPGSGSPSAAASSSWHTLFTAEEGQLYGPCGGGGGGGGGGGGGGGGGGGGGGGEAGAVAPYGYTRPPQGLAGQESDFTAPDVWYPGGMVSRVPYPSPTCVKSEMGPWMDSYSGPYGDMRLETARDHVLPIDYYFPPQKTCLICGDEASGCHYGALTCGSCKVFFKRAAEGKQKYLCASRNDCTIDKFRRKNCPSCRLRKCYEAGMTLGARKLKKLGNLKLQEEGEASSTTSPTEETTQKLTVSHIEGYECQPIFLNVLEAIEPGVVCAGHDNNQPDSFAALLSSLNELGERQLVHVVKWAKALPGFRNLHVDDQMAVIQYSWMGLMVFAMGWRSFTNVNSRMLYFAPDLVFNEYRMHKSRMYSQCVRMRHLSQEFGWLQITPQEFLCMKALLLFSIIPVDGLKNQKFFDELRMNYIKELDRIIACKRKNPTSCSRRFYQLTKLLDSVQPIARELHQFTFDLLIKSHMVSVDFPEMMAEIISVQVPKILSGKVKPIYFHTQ

Androgen receptor [3] = molecular target: T1, Androgen receptor; assay: Agonist activity at AR (unknown origin) expressed in human LNCaP cells incubated for 20 hrs by luciferase reporter gene assay; format: cell-based
Glucocorticoid receptor [4] = molecular target: T2, Glucocorticoid receptor (Rattus norvegicus, UniProt P06536); assay: Antagonist activity at GR in rat PBMC assessed as reduction in dexamethasone-induced FKBP5 gene expression incubated for 24 hrs by RT-qPCR method; format: cell-based
T2 sequence (P06536 whole entry): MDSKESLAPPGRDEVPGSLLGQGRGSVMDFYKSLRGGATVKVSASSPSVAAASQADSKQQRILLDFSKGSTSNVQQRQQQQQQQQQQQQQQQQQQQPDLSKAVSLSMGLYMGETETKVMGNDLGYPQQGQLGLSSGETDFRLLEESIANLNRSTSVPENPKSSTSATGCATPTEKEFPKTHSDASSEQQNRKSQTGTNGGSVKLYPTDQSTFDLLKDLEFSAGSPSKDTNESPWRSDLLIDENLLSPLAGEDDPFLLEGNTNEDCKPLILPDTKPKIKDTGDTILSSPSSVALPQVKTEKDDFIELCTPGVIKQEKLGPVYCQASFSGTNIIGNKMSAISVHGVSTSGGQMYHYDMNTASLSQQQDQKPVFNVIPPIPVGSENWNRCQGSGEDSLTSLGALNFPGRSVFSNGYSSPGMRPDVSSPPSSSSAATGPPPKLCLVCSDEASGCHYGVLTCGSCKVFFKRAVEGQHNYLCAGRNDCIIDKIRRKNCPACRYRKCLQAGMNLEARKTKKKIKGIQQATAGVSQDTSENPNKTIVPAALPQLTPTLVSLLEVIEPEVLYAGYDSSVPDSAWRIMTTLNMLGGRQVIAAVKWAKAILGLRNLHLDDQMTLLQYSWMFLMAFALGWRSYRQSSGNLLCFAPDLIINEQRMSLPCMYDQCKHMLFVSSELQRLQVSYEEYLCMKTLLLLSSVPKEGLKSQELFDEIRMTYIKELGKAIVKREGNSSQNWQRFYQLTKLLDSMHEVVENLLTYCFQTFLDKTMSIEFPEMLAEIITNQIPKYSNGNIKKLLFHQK

Glucocorticoid receptor [5] = molecular target: T3, Glucocorticoid receptor (Canis lupus familiaris, UniProt A0A8C0QLS2); assay: Antagonist activity at GR in dog PBMC assessed as reduction in dexamethasone-induced FKBP5 gene expression incubated for 6 hrs by RT-qPCR method; format: cell-based
T3 sequence (A0A8C0QLS2 whole entry): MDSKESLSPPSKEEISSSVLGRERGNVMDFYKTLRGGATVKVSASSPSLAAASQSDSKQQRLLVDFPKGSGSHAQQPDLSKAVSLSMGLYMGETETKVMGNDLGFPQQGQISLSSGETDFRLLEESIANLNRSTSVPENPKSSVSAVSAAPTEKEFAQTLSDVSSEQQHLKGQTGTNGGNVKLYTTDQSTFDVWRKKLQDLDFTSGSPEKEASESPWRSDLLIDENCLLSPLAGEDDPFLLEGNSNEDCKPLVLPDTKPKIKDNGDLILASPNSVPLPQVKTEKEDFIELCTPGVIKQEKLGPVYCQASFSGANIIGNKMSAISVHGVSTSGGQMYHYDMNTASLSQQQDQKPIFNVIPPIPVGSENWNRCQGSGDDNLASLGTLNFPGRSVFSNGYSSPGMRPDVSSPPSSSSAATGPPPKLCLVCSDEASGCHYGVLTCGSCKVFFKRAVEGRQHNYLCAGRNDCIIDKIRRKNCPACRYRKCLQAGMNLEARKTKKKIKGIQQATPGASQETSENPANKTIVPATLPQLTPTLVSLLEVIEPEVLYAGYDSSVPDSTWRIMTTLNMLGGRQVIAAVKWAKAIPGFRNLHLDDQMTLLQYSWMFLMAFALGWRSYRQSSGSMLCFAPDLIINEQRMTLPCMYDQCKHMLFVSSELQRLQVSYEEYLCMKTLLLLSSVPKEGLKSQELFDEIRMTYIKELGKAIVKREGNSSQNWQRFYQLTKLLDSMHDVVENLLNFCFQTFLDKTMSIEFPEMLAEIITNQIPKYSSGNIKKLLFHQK

## CC(C)N(C)c1ccc([C@H]2C[C@@]3(C)[C@@H](CC[C@@]3(O)C#CC(C)(C)C)[C@@H]3CCC4=CC(=O)CC[C@@H]4[C@H]32)cc1
[1]
  bioavailability: 20%
Androgen receptor [2]
  Activity: Not Active
Androgen receptor [3]
  EC50: > 2500 nM
Glucocorticoid receptor [4]
  IC50: 45.6 nM
Glucocorticoid receptor [5]
  IC50: 24.5 nM
